Reference: patent US9908890B2, “Selective inhibitors of constitutive androstane receptor” (ST. JUDE CHILDREN'S RESEARCH HOSPITAL, priority 2014, dated 2018)
Read-outs that look alike come from different tables or passages of the source.

Tests used:
hCAR1 = target: T1, hCAR1 (Homo sapiens, UniProt Q14994); assay: Cell-based inverse agonist assay (CYP2B6-luciferase reporter in HepG2 cells transfected with hCAR1)
T1 construct: expressed in transfected cells; host or cells: HepG2 (transient transfection)
T1 sequence (Q14994 1-348 isoform Q14994-2): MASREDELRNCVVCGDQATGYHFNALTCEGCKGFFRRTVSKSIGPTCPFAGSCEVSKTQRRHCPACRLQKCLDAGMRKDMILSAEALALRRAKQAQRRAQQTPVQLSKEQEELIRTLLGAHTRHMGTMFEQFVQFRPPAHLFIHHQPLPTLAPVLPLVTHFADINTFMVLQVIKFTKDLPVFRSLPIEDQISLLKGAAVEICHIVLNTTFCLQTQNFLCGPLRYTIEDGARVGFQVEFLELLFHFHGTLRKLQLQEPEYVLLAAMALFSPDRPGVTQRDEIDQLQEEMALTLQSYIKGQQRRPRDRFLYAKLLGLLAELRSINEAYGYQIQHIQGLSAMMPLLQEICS
Experimental: HepG2 cells grown in flasks were transfected with Flag-hCAR1 and CYP2B6-luciferase reporter at a 1:3 ratio with Fugene HD (Promega) and incubated for 24 h. Cells were trypsinized and plated in 384-well plates (CulturPlate-384, PerkinElmer) at 5000 cells/well for the primary or secondary screening assays. Cells were treated with chemicals transferred by using a pintool 24 h prior to measuring reporter luciferase activity with SteadyLite firefly luciferase reagent and an EnVision plate reader (PerkinElmer). […] PXR activity was measured in HepG2 cells stably transfected with hPXR and CYP3A4-luciferase reporter (previously described as PXR Clonel cells, see Li, G., et al. (2012) Tox. Appl. Pharm. 258, 268-274; and Lin, W., et al. (2008) J. Biol. Chem. 283, 30650-30657). […] The luminescence signal was detected by using an Envision plate reader (PerkinElmer) and used to calculate the percentage of PXR activation. […] A flowchart of our screening strategy is illustrated in FIG. 1A. HepG2 cells were transiently transfected with pcDNA-hCAR1 and CYP2B6-luciferase plasmids and treated with varying concentrations of the test compounds in 384-well plates for 24 h, and CAR-mediated luciferase activity was measured. Twenty-five hits, defined as those displaying dose-responsive inhibitory effect on the constitutively active hCAR1, were selected and tested in various secondary screening assays. CINPA1 (FIG. 1B) was selected based on its potent inhibitory effect on hCAR1 and lack of detectable agonistic activity against PXR.

GST-hCAR-LBD = target: T2, GST-hCAR-LBD (Homo sapiens, UniProt Q14994); assay: CoAct binding inverse agonist assay (LanthaScreen TR-FRET, fluorescent PGC-1α coactivator recruitment/repression); format: biochemical; conditions: for inhibition at 70 µM / % Inhibition (70 μM): 70 μM compound, 42 μM clotrimazole = 100%, DMSO = 0%; for inhibition at 70 µM: read-out: % Inhibition (70 μM)
T2 construct: purchased Life Technologies (Carlsbad, Calif.) or Invitrogen (Carlsbad, Calif.)
T2 sequence (Q14994 109-352 limits assumed): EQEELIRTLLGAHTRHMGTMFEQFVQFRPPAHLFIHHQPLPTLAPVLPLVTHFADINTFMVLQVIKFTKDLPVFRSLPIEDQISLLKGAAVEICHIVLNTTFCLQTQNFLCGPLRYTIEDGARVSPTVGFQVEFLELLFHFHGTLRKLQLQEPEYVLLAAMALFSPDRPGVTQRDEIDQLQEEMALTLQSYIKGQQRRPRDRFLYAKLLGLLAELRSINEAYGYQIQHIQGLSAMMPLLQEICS
Experimental: The effect of putative CAR ligands on the recruitment or repression of PGC-1α binding to hCAR was evaluated by using a LanthaScreen TR-FRET assay according to the manufacturer's instructions. […] The final DMSO concentration was 0.7% in all assay wells. […] The % Inhibition values were then plotted for individual chemicals. When applicable, the graphic software GraphPad Prism 5.04 (GraphPad Software, La Jolla, Calif., USA) was used to fit the data into a one-site competitive-binding equation to derive IC50 values. […] The assay plates were then briefly spun down and incubated for 1 hour at room temperature (25° C.). […] The final DMSO concentration was 0.7% in all assay wells. […] The % Inhibition values were then plotted for individual chemicals. When applicable, the graphic software GraphPad Prism 5.04 (GraphPad Software, La Jolla, Calif., USA) was used to fit the data into a one-site competitive-binding equation to derive IC50 values.

[1] = tested on: CAR- and PXR-regulated genes in human primary hepatocytes; assay: Quantitative real-time PCR in human primary hepatocytes; format: cell-based; conditions: three donors, 1 μM CITCO or 5 μM PK11195, 48 h
Excerpt: (§1) RNA was extracted, cDNA synthesized, and gene expression analyzed by performing real-time PCR using Taqman probes for each gene. […] LS174T cells were maintained in 10% charcoal-dextran-treated, FBS media for 4 days before the experiment. […] Briefly, human primary hepatocytes (HPH) were maintained in William's E media with supplements for 4 days before treatment. […] RNA extracted was used for cDNA synthesis and measured by performing quantitative real-time PCR assays with Taqman probes.
Briefly, human primary hepatocytes (donor 5) were maintained in William's E Media with supplements for 4 days prior to treatment. […] RNA extracted was used for cDNA synthesis and measured by quantitative real-time PCR with Taqman probes. CYP2B6 and CYP3A4 mRNA were normalized to the internal control 18S and DMSO-treated samples were set to 1.
(§2) Cell lines or human hepatocytes were treated with chemicals for 24-48 hours before RNA was extracted and purified by using the Maxwell 16LEV simplyRNA tissue kit (Promega). Then, cDNA was prepared from 2 μg of RNA, and diluted cDNA was used to perform quantitative RT-PCR assays by using TaqMan probes (ABI; 7500 Thermocycler) with 18S as the internal standard.

[2] = tested on: CAR-regulated genes in LS174T cells; assay: Quantitative real-time PCR in LS174T cells; format: cell-based; conditions: 1 μM CINPA1 or 5 μM PK11195, 24 h
Excerpt: as §1
Briefly, LS174T were maintained in 10% charcoal-dextran treated-FBS media for 4 days prior to the experiment. […] For the data shown in both FIG. 12A and FIG. 12B, RNA extracted was used for cDNA synthesis and measured by quantitative real-time PCR with Taqman probes. MDR1 mRNA was normalized to the internal control 18S and DMSO treated samples were set to 1. *, p<0.05 when compared to DMSO samples.
as §2

[3] = read-out: IC50 (CAR inverse agonistic activity)

In the case of CCN(CC)CC(=O)N1c2ccccc2CCc2ccc(Nc3nnc(C)o3)cc21 [Compound 10, 2-(diethylamino)-1-(3-((5-methyl-1,3,4-oxadiazol-2-yl)amino)-10,11-dihydro-5H-dibenzo[b,f]azepin-5-yl)ethan-1-one], the “IC50” value (hCAR1) is reported as 111600 nM, the “% Inhibition (56 μM)” value (hCAR1) is reported as 6.281% and the inhibition at 70 µM (GST-hCAR-LBD) is reported as 93.8%. For the same compound, the IC50 (GST-hCAR-LBD; Table 4, read-out: IC50) was 18800 nM and the “fold increase of IC50 (decrease of activity) relative to lead chemical 1 (CINPA1)” value (GST-hCAR-LBD; relative to chemical 1) was “about 3.4 fold”.

In the case of CCC(C)N(C)C(=O)c1cc2ccccc2c(-c2ccccc2Cl)n1 (centres unmarked) [PK11195, reference compound], the “CYP2B6 mRNA level, compound alone” value [1] is reported as “increased CYP2B6 transcription”, the “CYP2B6 mRNA level” value [2] is reported as “reduced the levels of CYP2B6” and the “CYP3A4 mRNA level” value [2] is reported as “increased that of CYP3A4”. The “MDR1 mRNA level” value [2] was “reduced MDR1 levels”.

With CCNCC(=O)N1c2ccccc2CCc2ccc(NC(=O)OCC)cc21 [Compound 71] the “% Inhibition (70 μM)” value (GST-hCAR-LBD) was 77.6% and the IC50 (GST-hCAR-LBD; Table 4, read-out: IC50) was 28000 nM.

Compound CC(C)OC(=O)Nc1ccc2c(c1)N(C(=O)COC1CCC1)c1ccccc1CC2 [Compound 34, isopropyl (5-(2-cyclobutoxyacetyl)-10,11-dihydro-5H-dibenzo[b,f]azepin-3-yl)carbamate] has an IC50 (GST-hCAR-LBD; [3]) of 38 nM.

O=C(Nc1ccc2c(c1)N(C(=O)c1cccs1)c1ccccc1CC2)OC1CCCCC1 [Compound 68] showed an IC50 (GST-hCAR-LBD; Table 4, read-out: IC50) of 19 nM.

CCN(CC)CC(=O)N1c2ccccc2CCc2ccc(NC(=O)N(CC)CC)cc21 [Compound 8, 3-(5-(diethylglycyl)-10,11-dihydro-5H-dibenzo[b,f]azepin-3-yl)-1,1-diethylurea] was tested, and the “IC50” value (hCAR1) was 109600 nM, the “% Inhibition (56 μM)” value (hCAR1) was 2.849% and the inhibition at 70 µM (GST-hCAR-LBD) was 93.8%. The IC50 (GST-hCAR-LBD; [3]) was 14000 nM.

For CCOC(=O)Nc1ccc2c(c1)N(C(=O)CN1C(C)(C)CCCC1(C)C)c1ccccc1CC2 [Compound 14, ethyl (5-(2-(2,2,6,6-tetramethylpiperidin-1-yl)acetyl)-10,11-dihydro-5H-dibenzo[b,f]azepin-3-yl)carbamate], the inhibition at 70 µM (GST-hCAR-LBD) was 90.5%, the IC50 (GST-hCAR-LBD; [3]) was 4080 nM and the “fold IC50 relative to chemical 18” value (GST-hCAR-LBD; relative to chemical 18) was “over 6 fold”.

In the case of CC(C)OC(=O)Nc1ccc2c(c1)N(C(=O)c1cccs1)c1ccccc1CC2 [Compound 64], the IC50 (GST-hCAR-LBD; Table 4, read-out: IC50) is reported as 12 nM.

With CCC(C)OCC(=O)N1c2ccccc2CCc2ccc(NC(=O)OC(C)C)cc21 (centres unmarked) [Compound 31, isopropyl (5-(2-(sec-butoxy)acetyl)-10,11-dihydro-5H-dibenzo[b,f]azepin-3-yl)carbamate] the IC50 (GST-hCAR-LBD; [3]) was 35 nM.

For CCN(CC)CCC(=O)N1c2ccccc2CCc2ccc(NC(=O)OC(C)C)cc21 [Compound 25, isopropyl (5-(3-(diethylamino)propanoyl)-10,11-dihydro-5H-Dibenzo[b,f]azepin-3-yl)carbamate], the IC50 (GST-hCAR-LBD; [3]) was 6400 nM.

In the case of O=C(Nc1ccc2c(c1)N(C(=O)Cn1cccc1)c1ccccc1CC2)N1CCCC1 [Compound 45], the IC50 (GST-hCAR-LBD; Table 4, read-out: IC50) is reported as 280 nM.

For CC(C)OC(=O)Nc1ccc2c(c1)N(C(=O)COC1COC1)c1ccccc1CC2 [Compound 49], the IC50 (GST-hCAR-LBD; Table 4, read-out: IC50) was 660 nM.

For CCNS(=O)(=O)Nc1ccc2c(c1)N(C(=O)CN(CC)CC)c1ccccc1CC2 [Compound 9], the “IC50” value (hCAR1) was 105900 nM, the “% Inhibition (56 μM)” value (hCAR1) was 4.757% and the inhibition at 70 µM (GST-hCAR-LBD) was 92%. The IC50 (GST-hCAR-LBD; [3]) was 19100 nM.

O=C(Nc1ccc2c(c1)N(C(=O)OC1CCCC1)c1ccccc1CC2)OC1CCCCC1 [Compound 60] showed an IC50 (GST-hCAR-LBD; Table 4, read-out: IC50) of 17 nM.

With O=C(Nc1ccc2c(c1)N(C(=O)Cn1cccc1)c1ccccc1CC2)OC1CCCCC1 [Compound 44, cyclohexyl (5-(2-(1H-pyrrol-1-yl)acetyl)-10,11-dihydro-5H-dibenzo[b,f]azepin-3-yl)carbamate] the IC50 (GST-hCAR-LBD; [3]) was 12 nM and the “fold increase of CAR inverse agonistic activity (potency) over lead chemical 1 (CINPA1)” value (GST-hCAR-LBD; relative to chemical 1) was “approximately 59 fold”.

O=C(Nc1ccc2c(c1)N(C(=O)Cc1cccs1)c1ccccc1CC2)OC1CCCCC1 [Compound 66] gave an IC50 (GST-hCAR-LBD; Table 4, read-out: IC50) of 26 nM.

In the case of CCNC(=O)Nc1ccc2c(c1)N(C(=O)CN(CC)CC)c1ccccc1CC2 [Compound 5, 1-(5-(diethylglycyl)-10,11-dihydro-5H-dibenzo[b,f]azepin-3-yl)-3-ethylurea], the inhibition at 70 µM (GST-hCAR-LBD) is reported as 94.9% and the IC50 (GST-hCAR-LBD; [3]) is reported as 14400 nM.

Work on O=C(Nc1ccc2c(c1)N(C(=O)Cc1ccco1)c1ccccc1CC2)OC1CCCCC1 [Compound 67] yielded an IC50 (GST-hCAR-LBD; Table 4, read-out: IC50) of 31 nM.

CCOCC(=O)N1c2ccccc2CCc2ccc(NC(=O)OC(C)C)cc21 [Compound 29, isopropyl (5-(2-ethoxyacetyl)-10,11-dihydro-5H-dibenzo[b,f]azepin-3-yl)carbamate] gave an IC50 (GST-hCAR-LBD; [3]) of 11400 nM.

For “N-(5-(diethylglycyl)-10,11-dihydro-5H-dibenzo[b,f]azepin-3-yl)isobutyramide [Compound 3]”, the “IC50” value (hCAR1) was 104400 nM, the “% Inhibition (56 μM)” value (hCAR1) was 0.03612% and the “% Inhibition (70 μM)” value (GST-hCAR-LBD) was 113.8%. It also gave an IC50 (GST-hCAR-LBD; [3]) of 680 nM.
